Data reported in ChEMBL document CHEMBL1150606, “Cytotoxic sphingosine 4-sulfates from the sponge Spirastrella abata” (2002).
≈ marks a conversion by molar mass, not a printed value.

How the values were obtained:
Assay type in all cases: functional
Settings in all cases: read-out: ED50 (the source's name)
SK-OV-3 = assay: Cytotoxicity against human SKOV3 cells
A549 = assay: Cytotoxicity against human A549 cells
XF498 = assay: Cytotoxicity against human XF498 cells
SK-MEL-2 = assay: Cytotoxicity against human SK-MEL-2 cells
HCT-15 = assay: Cytotoxicity against human HCT15 cells

Row | SMILES | EC50 (SK-OV-3) | EC50 (A549) | EC50 (XF498) | EC50 (SK-MEL-2) | EC50 (HCT-15)
1 | CCCCCCCCCCC/C=C/C[C@@H](OS(=O)(=O)O)[C@@H](O)[C@@H](N)CO | 8.2 µg/mL (≈ 20.7 µM) | 9.9 µg/mL (≈ 25 µM) | 4.6 µg/mL (≈ 11.6 µM) | 4 µg/mL (≈ 10.1 µM) | 3.7 µg/mL (≈ 9.35 µM)
2 | CCCCCCCCCC/C=C/C[C@@H](OS(=O)(=O)O)[C@@H](O)[C@@H](N)CO | 0.3 µg/mL (≈ 0.786 µM) | 0.3 µg/mL (≈ 0.786 µM) | 0.3 µg/mL (≈ 0.786 µM) | 0.3 µg/mL (≈ 0.786 µM) | 0.3 µg/mL (≈ 0.786 µM)
